Assay results as given in PubChem BioAssay (NCI).
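Each compound was tested at five concentrations against cells in 96-well plates for 48 hours. Here, GI50 denotes the concentration required for 50% inhibition of growth. TGI: concentration producing complete growth inhibition.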

Columns and labels:
Assay in all cases: DTP human tumour cell line panel, 48 h
HL-60(TB) leukemia = test system: HL-60(TB) leukemia
SF-268 CNS = test system: SF-268 CNS
SK-MEL-2 melanoma = test system: SK-MEL-2 melanoma
OVCAR-4 ovarian = test system: OVCAR-4 ovarian
COLO 205 colon = test system: COLO 205 colon
HOP-62 NSCLC = test system: HOP-62 NSCLC
SK-MEL-5 melanoma = test system: SK-MEL-5 melanoma
TK-10 renal = test system: TK-10 renal
PC-3 prostate = test system: PC-3 prostate
SK-MEL-28 melanoma = test system: SK-MEL-28 melanoma
HT29 colon = test system: HT29 colon
MCF7 breast = test system: MCF7 breast
NCI-H522 lung = test system: NCI-H522 lung
HCT-116 colon = test system: HCT-116 colon
M14 melanoma = test system: M14 melanoma
A498 renal = test system: A498 renal
UACC-257 melanoma = test system: UACC-257 melanoma
SK-OV-3 ovarian = test system: SK-OV-3 ovarian
U251 CNS = test system: U251 CNS
IGROV1 ovarian = test system: IGROV1 ovarian
CAKI-1 renal = test system: CAKI-1 renal
NCI-H226 lung = test system: NCI-H226 lung
NCI-H23 lung = test system: NCI-H23 lung
SF-539 CNS = test system: SF-539 CNS
HS 578T breast = test system: HS 578T breast
MDA-MB-231 breast = test system: MDA-MB-231 breast
MOLT-4 leukemia = test system: MOLT-4 leukemia
ACHN renal = test system: ACHN renal
UACC-62 melanoma = test system: UACC-62 melanoma
SN12C renal = test system: SN12C renal
NCI/ADR-RES ovarian = test system: NCI/ADR-RES ovarian
KM12 colon = test system: KM12 colon
NCI-H460 lung = test system: NCI-H460 lung
OVCAR-5 ovarian = test system: OVCAR-5 ovarian
SW-620 colon = test system: SW-620 colon
SF-295 CNS = test system: SF-295 CNS
BT-549 breast = test system: BT-549 breast
LOX IMVI melanoma = test system: LOX IMVI melanoma
DU-145 prostate = test system: DU-145 prostate
SNB-19 CNS = test system: SNB-19 CNS
RXF 393 renal = test system: RXF 393 renal
CCRF-CEM leukemia = test system: CCRF-CEM leukemia
UO-31 renal = test system: UO-31 renal
SNB-75 CNS = test system: SNB-75 CNS
RPMI-8226 leukemia = test system: RPMI-8226 leukemia
T-47D breast = test system: T-47D breast
K-562 leukemia = test system: K-562 leukemia
HCC-2998 colon = test system: HCC-2998 colon
OVCAR-8 ovarian = test system: OVCAR-8 ovarian
EKVX NSCLC = test system: EKVX NSCLC
HOP-92 NSCLC = test system: HOP-92 NSCLC
MDA-MB-435 = test system: MDA-MB-435
A549 NSCLC = test system: A549 NSCLC
OVCAR-3 ovarian = test system: OVCAR-3 ovarian
HCT-15 colon = test system: HCT-15 colon

Compound: COc1ccccc1NC(=O)c1ccc(NC2=C(Cl)C(=O)N(Cc3ccccc3)C2=O)cc1
- GI50 (HL-60(TB) leukemia): 3.36 µM
- TGI (HL-60(TB) leukemia): 43.5 µM
- GI50 (SF-268 CNS): 25.4 µM
- TGI (SF-268 CNS): > 100 µM
- GI50 (SK-MEL-2 melanoma): 11.2 µM
- TGI (SK-MEL-2 melanoma): 29.9 µM
- GI50 (OVCAR-4 ovarian): 29.3 µM
- TGI (OVCAR-4 ovarian): > 100 µM
- GI50 (COLO 205 colon): 44.9 µM
- TGI (COLO 205 colon): > 100 µM
- GI50 (HOP-62 NSCLC): 26.8 µM
- TGI (HOP-62 NSCLC): 63.5 µM
- GI50 (SK-MEL-5 melanoma): 16 µM
- TGI (SK-MEL-5 melanoma): 45.3 µM
- GI50 (TK-10 renal): 40.3 µM
- TGI (TK-10 renal): 89.1 µM
- GI50 (PC-3 prostate): 0.976 µM
- TGI (PC-3 prostate): 5.75 µM
- GI50 (SK-MEL-28 melanoma): 30.3 µM
- TGI (SK-MEL-28 melanoma): > 100 µM
- GI50 (HT29 colon): 36.8 µM
- TGI (HT29 colon): > 100 µM
- GI50 (MCF7 breast): 7.77 µM
- TGI (MCF7 breast): 54 µM
- GI50 (NCI-H522 lung): 5.09 µM
- TGI (NCI-H522 lung): 22.6 µM
- GI50 (HCT-116 colon): 12.9 µM
- TGI (HCT-116 colon): 36.2 µM
- GI50 (M14 melanoma): 17.6 µM
- TGI (M14 melanoma): 40.4 µM
- GI50 (A498 renal): 27.8 µM
- TGI (A498 renal): 86.3 µM
- GI50 (UACC-257 melanoma): 0.228 µM
- TGI (UACC-257 melanoma): 21.9 µM
- GI50 (SK-OV-3 ovarian): > 100 µM
- TGI (SK-OV-3 ovarian): > 100 µM
- GI50 (U251 CNS): 29.3 µM
- TGI (U251 CNS): > 100 µM
- GI50 (IGROV1 ovarian): 1.36 µM
- TGI (IGROV1 ovarian): 4.29 µM
- GI50 (CAKI-1 renal): 1.48 µM
- TGI (CAKI-1 renal): 2.95 µM
- GI50 (NCI-H226 lung): 6.84 µM
- TGI (NCI-H226 lung): 32.9 µM
- GI50 (NCI-H23 lung): 12 µM
- TGI (NCI-H23 lung): 25.9 µM
- GI50 (SF-539 CNS): 16.6 µM
- TGI (SF-539 CNS): 41.2 µM
- GI50 (HS 578T breast): 37.5 µM
- TGI (HS 578T breast): > 100 µM
- GI50 (MDA-MB-231 breast): 2.82 µM
- TGI (MDA-MB-231 breast): 16.3 µM
- GI50 (MOLT-4 leukemia): 3.31 µM
- TGI (MOLT-4 leukemia): > 100 µM
- GI50 (ACHN renal): 33.4 µM
- TGI (ACHN renal): > 100 µM
- GI50 (UACC-62 melanoma): 0.877 µM
- TGI (UACC-62 melanoma): 24.5 µM
- GI50 (SN12C renal): 10.3 µM
- TGI (SN12C renal): 39.5 µM
- GI50 (NCI/ADR-RES ovarian): 15.2 µM
- TGI (NCI/ADR-RES ovarian): 48.1 µM
- GI50 (KM12 colon): 26.6 µM
- TGI (KM12 colon): 86 µM
- GI50 (NCI-H460 lung): 33.4 µM
- TGI (NCI-H460 lung): > 100 µM
- GI50 (OVCAR-5 ovarian): 44.1 µM
- TGI (OVCAR-5 ovarian): > 100 µM
- GI50 (SW-620 colon): 5.29 µM
- TGI (SW-620 colon): > 100 µM
- GI50 (SF-295 CNS): 18.2 µM
- TGI (SF-295 CNS): 63.4 µM
- GI50 (BT-549 breast): 1.46 µM
- TGI (BT-549 breast): 11 µM
- GI50 (LOX IMVI melanoma): 10.3 µM
- TGI (LOX IMVI melanoma): 35 µM
- GI50 (DU-145 prostate): 2.01 µM
- TGI (DU-145 prostate): 28 µM
- GI50 (SNB-19 CNS): 48.9 µM
- TGI (SNB-19 CNS): > 100 µM
- GI50 (RXF 393 renal): 19.9 µM
- TGI (RXF 393 renal): 78.8 µM
- GI50 (CCRF-CEM leukemia): 0.0777 µM
- TGI (CCRF-CEM leukemia): > 100 µM
- GI50 (UO-31 renal): 1.7 µM
- TGI (UO-31 renal): 3.2 µM
- GI50 (SNB-75 CNS): 37.7 µM
- TGI (SNB-75 CNS): > 100 µM
- GI50 (RPMI-8226 leukemia): 0.0257 µM
- TGI (RPMI-8226 leukemia): 0.363 µM
- GI50 (T-47D breast): 41.2 µM
- TGI (T-47D breast): > 100 µM
- GI50 (K-562 leukemia): 4.21 µM
- TGI (K-562 leukemia): > 100 µM
- GI50 (HCC-2998 colon): 4.2 µM
- TGI (HCC-2998 colon): 15.4 µM
- GI50 (OVCAR-8 ovarian): 2.27 µM
- TGI (OVCAR-8 ovarian): 32.9 µM
- GI50 (EKVX NSCLC): 29.1 µM
- TGI (EKVX NSCLC): > 100 µM
- GI50 (HOP-92 NSCLC): 3.68 µM
- TGI (HOP-92 NSCLC): 45.4 µM
- GI50 (MDA-MB-435): 11.2 µM
- TGI (MDA-MB-435): 40.5 µM
- GI50 (A549 NSCLC): 10.5 µM
- TGI (A549 NSCLC): 90.4 µM
- GI50 (OVCAR-3 ovarian): 10.2 µM
- TGI (OVCAR-3 ovarian): 22.6 µM
- GI50 (HCT-15 colon): 14.7 µM
- TGI (HCT-15 colon): 38.8 µM
